Earlier results as cited in patent publication US20120321577A1, “Skin-whitening composition containing tyrosinase inhibitor” (priority 2011, published 2012).

Settings: conventionally

## NC[C@H]1CC[C@H](C(=O)O)CC1 [tranexamic acid]
  concentration needed to give whitening effect: higher than 3%
